Results as given in ChEMBL document CHEMBL4118272, “The inhibitory effect of kokusaginine on the growth of human breast cancer cells and MDR-resistant cells is mediated by the inhibition of tubulin assembly” (Bioorg Med Chem Lett, 2018).
The source made the active and inactive calls. The calls are words filed in the database; no cut-off is given here.

What was measured:
MCF7 [1] = experiment: Growth inhibition of human MCF7 cells after 48 hrs by MTT assay; type: functional, cell-based; settings: MCF7, 48 h
[2] = Resistance factor, ratio of IC50 for human MDA-MB-231/ADR cells to IC50 for human MDA-MB-231 cells; type: functional
[3] = Growth inhibition of human MDA-MB-231/ADR cells after 48 hrs by MTT assay; type: functional; settings: MDA-MB-231, 48 h
[4] = Resistance factor, ratio of IC50 for human MCF7/ADR cells to IC50 for human MCF7 cells; type: functional
NCI/ADR-RES [5] = experiment: Growth inhibition of human MCF7/ADR cells after 48 hrs by MTT assay; type: functional, cell-based
Homo sapiens [6] = species: Homo sapiens; settings: 10 uM
Description: Inhibition of P-gp in human MCF7/ADR cells assessed as increase in intracellular Rh123 accumulation at 10 uM after 2 hrs by flow cytometry

MCF7 [7] = experiment: Induction of apoptosis in human MCF7 cells at 12 uM after 24 hrs by Annexin V-FITC/PI double staining based flow cytometry relative to control; type: functional
NCI/ADR-RES [8] = experiment: Induction of apoptosis in human MCF7/ADR cells at 24 uM after 24 hrs by Annexin V-FITC/PI double staining based flow cytometry relative to control; type: functional
Tubulin = experiment: Inhibition of tubulin (unknown origin) polymerization preincubated for 15 mins followed by GTP addition measured for 20 mins by turbidimetric analysis; type: protein-complex assay, Homo sapiens
NCI/ADR-RES [9] = experiment: Induction of apoptosis in human MCF7/ADR cells at 12 uM after 24 hrs by Annexin V-FITC/PI double staining based flow cytometry relative to control; type: functional
MCF7 [10] = experiment: Induction of apoptosis in human MCF7 cells at 24 uM after 24 hrs by Annexin V-FITC/PI double staining based flow cytometry relative to control; type: functional
MCF7 [11] = experiment: Induction of apoptosis in human MCF7 cells at 6 uM after 24 hrs by Annexin V-FITC/PI double staining based flow cytometry relative to control; type: functional
NCI/ADR-RES [12] = experiment: Downregulation of P-gp protein expression level in human MCF7/ADR cells assessed as P-gp protein level up to 24 uM by Western blot analysis (reference value: 0.67); type: functional
MDA-MB-231 = experiment: Growth inhibition of human MDA-MB-231 cells after 48 hrs by MTT assay; type: functional, cell-based; settings: MDA-MB-231, 48 h
MCF7 [13] = experiment: Downregulation of P-gp protein expression level in human MCF7 cells assessed as P-gp protein level up to 24 uM by Western blot analysis; type: functional
NCI/ADR-RES [14] = experiment: Induction of apoptosis in human MCF7/ADR cells at 6 uM after 24 hrs by Annexin V-FITC/PI double staining based flow cytometry relative to control; type: functional
Sus scrofa [15] = species: Sus scrofa; experiment: Inhibition of porcine MAP-rich tubulin polymerization measured every 30 secs for 30 mins
Tubulin (Homo sapiens) [16] = molecular target: T1, Tubulin (Homo sapiens) (UniProt P68371+Q9H4B7+P0DPH7+P68366+Q13509+Q71U36+P04350+Q3ZCM7+P07437+P68363+Q9BQE3+Q6PEY2+Q13885+Q9BVA1+Q9BUF5); experiment: Displacement of [3H]colchicine from tubulin (unknown origin) at 5 uM after 10 mins relative to control; type: protein-complex assay
NCI/ADR-RES [17] = experiment: Downregulation of P-gp mRNA level in human MCF7/ADR cells by qRT-PCR analysis; type: functional, cell-based
NCI/ADR-RES [18] = experiment: Downregulation of P-gp expression level in human MCF7/ADR cells assessed as P-gp mRNA level up to 24 uM by qRT-PCR analysis (reference value: 17.5); type: functional
Tubulin (Homo sapiens) [19] = molecular target: T1, Tubulin (Homo sapiens); experiment: Displacement of [3H]colchicine from tubulin (unknown origin) at 1 uM after 10 mins relative to control; type: protein-complex assay
Homo sapiens [20] = species: Homo sapiens; experiment: Inhibition of P-gp in human MCF7/ADR cells assessed as increase in intracellular Rh123 accumulation at 24 uM after 2 hrs by flow cytometry; type: cell-based
Sus scrofa [21] = species: Sus scrofa; experiment: Inhibition of porcine MAP-rich tubulin polymerization at 20 uM measured every 30 secs for 30 mins

Question: With COc1cccc2c1C(=O)c1c(O)c3c(c(O)c1C2=O)C[C@@](O)(C(=O)CO)C[C@@H]3O[C@H]1C[C@H](N)[C@H](O)[C@H](C)O1.Cl [DOXORUBICIN HYDROCHLORIDE] as the molecule, how does the IC50 (MCF7 [1]) read?
Answer: Its IC50 is 1.72 µM.

Question: And the “Ratio IC50” value [2]?
Answer: Its value is 22.72.

Question: And the IC50 [3]?
Answer: Its IC50 is 49.8 µM.

Question: What about the “Ratio IC50” value [4] of the same molecule?
Answer: Its value is 29.5.

Question: And the IC50 (NCI/ADR-RES [5])?
Answer: Its IC50 is 50.7 µM.

Question: For COc1ccc(CCN(C)CCCC(C#N)(c2ccc(OC)c(OC)c2)C(C)C)cc1OC (stereo not drawn), which inhibition (Homo sapiens [6]) is on record?
Answer: Its inhibition is “Active”.

Question: Which results are given for COc1cc2nc3occc3c(OC)c2cc1OC [KOKUSAGININE]?
Answer: Activity (MCF7 [7]): 21.63%; Activity (NCI/ADR-RES [8]): 63.29%; IC50 (Tubulin): 820 nM; Activity (NCI/ADR-RES [9]): 45.35%; Activity (MCF7 [10]): 39.52%; Activity (MCF7 [11]): 12.08%; IC50 (MCF7 [1]): 7.23 µM; Activity (NCI/ADR-RES [12]): 0.19; IC50 (MDA-MB-231): 9.01 µM; Activity (MCF7 [13]): 0.02 - 0.09; Activity (NCI/ADR-RES [14]): 28.16%; inhibition (Sus scrofa [15]): Dose-dependent effect; inhibition (Tubulin (Homo sapiens) [16]): 98%; Ratio IC50 [2]: 1.13; IC50 [3]: 10.2 µM; Activity (NCI/ADR-RES [17]): Dose-dependent effect; Activity (NCI/ADR-RES [18]): 6.4; Ratio IC50 [4]: 0.64; inhibition (Tubulin (Homo sapiens) [19]): 92%; IC50 (NCI/ADR-RES [5]): 4.62 µM; inhibition (Homo sapiens [20]): Active

Question: With COc1cc2c(c(OC)c1OC)-c1ccc(OC)c(=O)cc1[C@@H](NC(C)=O)CC2 as the molecule, how does the inhibition (Sus scrofa [21]) read?
Answer: Its inhibition is “Active”.
